For orientation: IC50 means the concentration at which inhibition is half-maximal.

The structures appear in SMILES notation.

Experimental findings from patent publication US9834564B2, “Substituted quinolines as PDE-10 inhibitors” (priority 2010, dated 2017) are described below.

Chain of recombinant human PDE-10 enzyme (PDE-10A) (Q9Y233 whole entry): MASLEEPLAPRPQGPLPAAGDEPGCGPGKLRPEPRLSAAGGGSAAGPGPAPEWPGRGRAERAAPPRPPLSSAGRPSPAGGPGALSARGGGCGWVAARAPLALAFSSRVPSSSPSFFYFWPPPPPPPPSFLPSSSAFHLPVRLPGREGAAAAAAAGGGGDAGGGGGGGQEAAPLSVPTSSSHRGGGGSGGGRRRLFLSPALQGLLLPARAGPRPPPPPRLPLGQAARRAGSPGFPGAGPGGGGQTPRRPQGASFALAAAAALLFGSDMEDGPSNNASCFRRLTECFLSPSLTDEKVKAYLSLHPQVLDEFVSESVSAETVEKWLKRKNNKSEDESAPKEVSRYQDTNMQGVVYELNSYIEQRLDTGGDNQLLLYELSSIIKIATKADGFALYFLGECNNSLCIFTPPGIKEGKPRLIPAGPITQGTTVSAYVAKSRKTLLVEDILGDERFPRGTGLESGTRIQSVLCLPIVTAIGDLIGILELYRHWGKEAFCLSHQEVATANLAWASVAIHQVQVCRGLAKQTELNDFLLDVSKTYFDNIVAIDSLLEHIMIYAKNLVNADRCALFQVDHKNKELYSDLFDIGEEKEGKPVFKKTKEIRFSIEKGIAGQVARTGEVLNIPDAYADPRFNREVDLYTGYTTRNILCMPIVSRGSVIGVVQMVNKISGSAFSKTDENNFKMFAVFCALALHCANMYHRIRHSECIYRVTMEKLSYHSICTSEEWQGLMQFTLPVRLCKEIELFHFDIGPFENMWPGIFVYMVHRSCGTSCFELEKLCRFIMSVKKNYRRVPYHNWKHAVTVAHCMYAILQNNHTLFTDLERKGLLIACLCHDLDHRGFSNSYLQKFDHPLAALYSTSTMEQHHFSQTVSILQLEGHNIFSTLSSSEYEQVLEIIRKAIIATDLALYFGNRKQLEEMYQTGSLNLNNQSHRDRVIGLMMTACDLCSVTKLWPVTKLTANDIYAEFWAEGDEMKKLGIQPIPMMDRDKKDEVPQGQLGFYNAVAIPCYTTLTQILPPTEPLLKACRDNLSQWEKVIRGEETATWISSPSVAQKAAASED

The assay addresses recombinant human PDE-10 enzyme (PDE-10A) (Homo sapiens (Human), UniProt Q9Y233). As to the kind of experiment: IMAP PDE Fluorescence Polarization assay, human PDE-10 inhibition (enzyme assay). It counts as biochemical. The following applies: recombinant human PDE-10, fluorescein-labeled cAMP/cGMP substrate, 40 min at 37° C. How it is done: In one embodiment, the compounds provided herein were assayed for their ability to inhibit human PDE-10A. In one embodiment, the activities of the compounds were determined using the Molecular Devices IMAP PDE Fluorescence Polarization assay using recombinant human PDE-10 enzyme expressed in a baculoviral system. Briefly, 10 μL of a compound (0.2 nM-20 μM) was added to either a 96-well half area black plate or a 384-well black plate along with 10 μL of Fluorescein-labeled cAMP/cGMP substrate as per manufacturer's instructions and 10 μL of PDE enzyme (activity 0.1 U). Following a 40-minute incubation at 37° C., 60 μL of IMAP binding reagent was added. […] The data was analyzed using Prism Software (GraphPad Inc, San Diego, Calif.).
(In general: Fluorescence polarisation rises when a labelled molecule tumbles more slowly, as on binding a larger partner.)
Turning to `O=c1[nH]c(CCc2nc(-c3ccccc3)cs2)nc2ccccc12` [Compound 116], the IC50 was < 0.5 µM.

Turning to `c1ccc2nc(CCc3nc4ccccc4s3)cnc2c1` [Compound 117], the IC50 fell in the range of 1 to 10 µM.

Take `c1ccc2nc(CCc3cnc4ccccc4n3)cnc2c1` [Compound 118]: the IC50 fell in the range of 1 to 10 µM.

In the case of `c1ccc2nc(CCc3cn4ccccc4n3)cnc2c1` [Compound 119], the IC50 was in the range of 1 to 10 µM.

As to `c1ccc(-c2c[nH]c(CNc3cnc4ccccc4n3)n2)cc1` [Compound 121], the IC50 was 1 to 10 µM.

In the case of `c1ccc(-c2c[nH]c(SCc3cnc4ccccc4n3)n2)cc1` [Compound 122], the IC50 was > 10 µM.

`Cc1cnc(C)n2nc(CCc3ccc4ccccc4n3)nc12` [Compound 126, 2-(2-(5,8-Dimethyl-[1,2,4]triazolo[1,5-c]pyrimidin-2-yl)ethyl)quinoline]: the IC50 is < 0.5 µM.

As to `Cc1ncc(C)n2nc(CCc3nc4ccccc4cc3F)nc12` [Compound 127], the IC50 was < 0.5 µM.

For the compound `Cc1ccc2ccc(CCc3nc4c(C)ncc(C)n4n3)nc2c1C` [Compound 128], the IC50 was < 0.5 µM.

Consider `Cc1ncc(C)n2nc(CCc3ccc4c(F)ccc(F)c4n3)nc12` [Compound 129], for which the IC50 lay within 0.5 to 1 µM.

Take `Cc1ncc(C)n2nc(CCc3ccc4ccc5ccccc5c4n3)nc12` [Compound 130]: the IC50 was in the range of 0.5 to 1 µM.

With `Cc1ncc(C)n2nc(CCc3ccc4ccc(F)c(F)c4n3)nc12` [Compound 131], the IC50 was < 0.5 µM.

For the compound `Cc1ncc(C)n2nc(CCc3ccc4ccc(Cl)c(Cl)c4n3)nc12` [Compound 132], the IC50 was in the range of 0.5 to 1 µM.

As to `Cc1ncc(C)n2nc(CCc3ccc4ccc5cccnc5c4n3)nc12` [Compound 133], the IC50 is < 0.5 µM.

With `Cc1ccc2ncc(CCc3nc4c(C)ncc(C)n4n3)nc2c1C` [Compound 135], the IC50 is < 0.5 µM.

For the compound `Cc1ccc2nc(CCc3nc4c(C)ncc(C)n4n3)cnc2c1C` [Compound 136], the IC50 is < 0.5 µM.

On to `Cc1ncc(C)n2nc(CCc3ccc4ccc5c(c4n3)NCCC5)nc12` [Compound 137], for which the IC50 is < 0.5 µM.

Regarding `Cc1ncc(C)n2nc(CCc3ccc4cccnc4n3)nc12` [Compound 138], the IC50 is < 0.5 µM.

As for `Cc1ncc(C)n2nc(CCc3ccc4ccncc4n3)nc12` [Compound 139], the IC50 was 1 to 10 µM.

As to `Cc1ncc(C)n2nc(CCc3ccc4ncccc4n3)nc12` [Compound 140], the IC50 was < 0.5 µM.

For `Cc1ncc(C)n2nc(CCc3ccc4ccc5nccnc5c4n3)nc12` [Compound 141], the IC50 was < 0.5 µM.

Consider `Cn1c(CCc2cnc3c(C(F)(F)F)ccc(C(F)(F)F)c3n2)nc2c3cccnc3ccc21` [Compound 143], for which the IC50 is < 0.5 µM.

`c1ccc2nc(CCc3nc4c5cccnc5ccn4n3)ccc2c1` [Compound 147]: the IC50 is < 0.5 µM.

For the compound `Cn1c(CCc2cnc3c(F)ccc(F)c3n2)nc2c3cccnc3ccc21` [Compound 148], the IC50 is < 0.5 µM.

Take `Cn1cc(-c2ccccc2)nc1CCc1cccc(-n2ccnc2)n1` [Compound 150]: the IC50 was 1 to 10 µM.

As for `Cn1cc(-c2ccccc2)nc1CCc1cccc(C(N)=O)n1` [Compound 151], the IC50 was > 10 µM.

Turning to `Cn1cc(-c2ccccc2)nc1CCc1cccc(-c2ccncc2)n1` [Compound 152], the IC50 was in the range of 1 to 10 µM.

As to `c1ccc2nc(CCc3nc4c5ncccc5ccn4n3)ccc2c1` [Compound 153], the IC50 was < 0.5 µM.

As for `Cn1c(CCc2cnc3ccccc3n2)nc2c3ncccc3ccc21` [Compound 154], the IC50 is < 0.5 µM.

As to `c1cnc2c(c1)ccc1ccc(CCc3nc4ccccn4n3)nc12` [Compound 156], the IC50 was < 0.5 µM.

Turning to `c1cnc2c(c1)ccn1nc(CCc3cnc4ccccc4n3)nc21` [Compound 157], the IC50 is < 0.5 µM.

With `c1cnc2c(c1)ccc1ccc(CCc3cnc4ccccc4n3)nc12` [Compound 158], the IC50 is < 0.5 µM.

On to `c1ccc2nc(CCc3ccc4ccc5cccnc5c4n3)ccc2c1` [Compound 159], for which the IC50 is < 0.5 µM.

For the compound `COc1cccc2ccc(CCc3nc4c5ncccc5ccc4n3C)nc12` [Compound 160], the 50% inhibitory concentration (IC50) was in the range of 0.5 to 1 µM.

As to `COc1cccc2ccc(CCc3nc4c5cccnc5ccc4n3C)nc12` [Compound 161], the IC50 was < 0.5 µM.

With `COc1cccc2ccc(CCc3ccc4ccc5cccnc5c4n3)nc12` [Compound 162], the IC50 lay in the range of 1 to 10 µM.

For the compound `Cn1c(CCc2ccc3cnccc3n2)nc2c3ncccc3ccc21` [Compound 163], the IC50 was < 0.5 µM.

As for `Cc1ncc(C)c2nc(CCc3nc4c5ncccc5ccc4n3C)ccc12` [Compound 164], the IC50 is < 0.5 µM.

Take `Cc1ncc(C)c2nc(CCc3nc4c5cccnc5ccc4n3C)ccc12` [Compound 165]: the IC50 is < 0.5 µM.

For `Cc1ncc(C)c2nc(CCc3nc4c(ccc5ncccc54)[nH]3)ccc12` [Compound 166], the IC50 is < 0.5 µM.

Turning to `Cc1ncc(C)c2nc(CCc3nc4c5cccnc5ccn4n3)ccc12` [Compound 167], the IC50 was < 0.5 µM.

With `Cc1ncc(C)n2nc(CCc3ccc4ccc5c(c4n3)NCCO5)nc12` [Compound 168], the IC50 was 1 to 10 µM.

Regarding `Cc1cc2c(nc(CCc3ccc4ccccc4n3)n2C)c2cccnc12` [Compound 169], the IC50 is > 10 µM.

With `Cc1cc2ncccc2c2nc(CCc3ccc4ccccc4n3)n(C)c12` [Compound 170], the IC50 was < 0.5 µM.

Regarding `Cn1c(CCc2ccc3ccc4cccnc4c3n2)nc2c3cccnc3ccc21` [Compound 171], the IC50 is < 0.5 µM.

Turning to `Cc1cnc(C)c(CCc2nc(-c3ccccc3)cn2C)n1` [Compound 172], the IC50 was < 0.5 µM.

In the case of `Cc1ccc(-c2cn(C)c(CCc3cnc4ccccc4n3)n2)cn1` [Compound 173], the IC50 was > 10 µM.

Consider `Cc1ccc(-c2cn(C)c(CCc3ccc4ncccc4n3)n2)cn1` [Compound 174], for which the IC50 was 0.5 to 1 µM.

For the compound `Cc1ncc(CCc2nc(-c3cccnc3)cn2C)nc1C` [Compound 175], the IC50 fell in the range of 1 to 10 µM.

Regarding `c1cnc2ccc(CCc3nc4c5cccnc5ccn4n3)nc2c1` [Compound 176], the IC50 is < 0.5 µM.

Consider `c1cnc2nc(CCc3nc4c5cccnc5ccn4n3)ccc2c1` [Compound 177], for which the IC50 was in the range of 0.5 to 1 µM.

In the case of `Cc1cnc2nc(CCc3nc4c5cccnc5ccn4n3)ccc2c1` [Compound 180], the IC50 is < 0.5 µM.

Consider `Fc1cnc2nc(CCc3nc4c5cccnc5ccn4n3)ccc2c1` [Compound 181], for which the IC50 was < 0.5 µM.

For the compound `FC(F)(F)c1cnc2nc(CCc3nc4c5cccnc5ccn4n3)ccc2c1` [Compound 182], the half-inhibitory concentration (IC50) was > 10 µM.

Consider `Cc1c(CCc2ccc3cc(F)cnc3n2)nc2c3cccnc3ccn12` [Compound 183], for which the IC50 is < 0.5 µM.

On to `Cc1cnc2nc(CCc3nc4c5cccnc5ccn4c3C)ccc2c1` [Compound 184], for which the IC50 was < 0.5 µM.

Consider `Cc1c(CCc2ccc3cc(C(F)(F)F)cnc3n2)nc2c3cccnc3ccn12` [Compound 185], for which the IC50 lay within 0.5 to 1 µM.

Regarding `Cc1ccnc2ccc(CCc3nc4c5cccnc5ccc4n3C)nc12` [Compound 186], the IC50 was < 0.5 µM.

Take `Cc1ccnc2ccc(CCc3nc4c5cccnc5ccn4c3C)nc12` [Compound 187]: the IC50 is < 0.5 µM.

Regarding `c1ccc2nc(CCc3nc4c5cccnc5ccn4n3)cnc2c1` [Compound 188], the IC50 is < 0.5 µM.

Consider `c1ccc2nc(CCc3cn4ccc5ncccc5c4n3)cnc2c1` [Compound 189], for which the IC50 is < 0.5 µM.
